Assay results as given in paper PMC6844382, “Design, synthesis and evaluation of quinolinone derivatives containing dithiocarbamate moiety as multifunctional AChE inhibitors for the treatment of Alzheimer’s disease” (Journal of Enzyme Inhibition and Medicinal Chemistry, 2019).
“Also recorded” adds a separate entry of the source.

What was measured:
[1] = test system: human neuroblastoma SH-SY5Y cells; test: Cytotoxicity on SH-SY5Y cells (MTT assay); type: cell-based; details: 12.5–100 µM, 24 h
Method: The cytotoxicity of test compound on the human neuroblastoma SH-SY5Y cells was evaluated by MTT assay. The SH-SY5Y cells were grown in a 1:1 mixture of Eagle's minimum essential medium (EMEM) and ham's F-12 medium supplemented with 10% foetal bovine serum (FBS), 100 U/mL penicillin and […] streptomycin in 5% CO2 at 37 °C. For assay, cells were seeded into 96-well plates at a density of 10000 cells/well and treated with compound 4c for 24 h. After this treatment, 20 μL of MTT at 37 °C was added. Four hours later, the medium was removed, and 200 μL of DMSO was added to dissolve the formazan crystal formed. The absorbance was measured using a microculture plate reader with a test wavelength of 570 nm and a reference wavelength of 630 nm. Results are expressed as the mean ± SD of three independent experiments.

[2] = from PAMPA-BBB Pe
Method: (§1) Afterwards, the acceptor filter plate was carefully placed on the donor plate to make the coated membrane touch both donor solution and acceptor buffer. […] Pe was calculated by the following expression: Pe = {−VdVa/[(Vd + Va)At]}ln (1-drugacceptor/drugequilibrium), where Vd is the volume of donor well, Va is volume in acceptor well, A is the filter area, t is the permeation time, drugacceptor is the absorbance obtained in the acceptor well and drugequilibrium is the theoretical equilibrium absorbance. Each compound was analysed at five wavelengths in four wells at least three independent runs, and the results were expressed as mean ± SD.

hAChE [3] = target: T1, hAChE (Homo sapiens, UniProt P22303); test: In vitro inhibition of hAChE (Ellman method); type: biochemical; design: Acetylcholinesterase (AChE, from electric eel and human erythrocytes); purchased Sigma-Aldrich (St. Louis, MO, USA); host or cells: human erythrocytes
T1 sequence (P22303 32-617 isoform P22303-2 limits assumed): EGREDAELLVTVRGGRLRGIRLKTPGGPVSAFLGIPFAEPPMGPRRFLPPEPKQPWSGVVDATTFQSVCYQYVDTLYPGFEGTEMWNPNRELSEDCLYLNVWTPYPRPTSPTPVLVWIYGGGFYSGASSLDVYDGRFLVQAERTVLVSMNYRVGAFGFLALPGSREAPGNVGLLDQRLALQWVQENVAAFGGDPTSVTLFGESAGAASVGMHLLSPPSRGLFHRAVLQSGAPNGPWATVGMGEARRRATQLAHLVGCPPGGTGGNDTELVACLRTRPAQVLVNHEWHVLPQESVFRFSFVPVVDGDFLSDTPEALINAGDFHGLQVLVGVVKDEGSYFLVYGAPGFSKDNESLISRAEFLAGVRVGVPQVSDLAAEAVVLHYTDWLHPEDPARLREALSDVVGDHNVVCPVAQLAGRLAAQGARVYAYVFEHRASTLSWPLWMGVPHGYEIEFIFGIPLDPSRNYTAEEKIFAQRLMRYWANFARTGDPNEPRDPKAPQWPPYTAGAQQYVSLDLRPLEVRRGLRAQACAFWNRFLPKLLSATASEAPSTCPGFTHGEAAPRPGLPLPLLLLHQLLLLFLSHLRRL
Method: (§2) The in vitro inhibitory activities of test compounds against AChE and BuChE were determined by the spectrophotometric method of Ellman[25]. […] For each assay, 160 μL of 1.5 mM DTNB, 50 μL of AChE (0.22 U/mL for eeAChE; 0.05 U/mL for hAChE) or eqBuChE (0.12 U/mL) were incubated with 10 μL of different concentrations of test compounds at 37 °C for 6 min.

[4] = target: T2, self-induced Aβ1-42 aggregation (Homo sapiens, UniProt P05067); test: Inhibition of self-induced Aβ1-42 aggregation (ThT assay); type: biochemical; details: read-out: Inhibition of Aβ1–42 aggregation (%) Self-induced
T2 construct: Aβ1-42 was obtained from Royobiotech Co., Ltd (Shanghai, China); purchased Royobiotech Co., Ltd (Shanghai, China)
T2 sequence (P05067 672-713): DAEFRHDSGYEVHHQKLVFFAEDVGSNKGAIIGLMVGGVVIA
Method: The inhibitory activities of compounds 4c-f and 9a-b on self-induced Aβ1-42 aggregation were also measured by the ThT assay. HFIP and ThT were purchased from TCI (Shanghai) Development. Aβ1-42 was obtained from Royobiotech Co., Ltd (Shanghai, China). The monomeric Aβ1-42 samples were prepared by HFIP and diluted with a 50 mM phosphate buffer (pH 7.4) to give a 25 μM solution. The test compound was dissolved in DMSO (250 μM) for storage and needed not to be diluted prior to use. […]. Then, 200 μL of 5 μM ThT in 50 mM glycine-NaOH buffer (pH 8.0) was added, and the percent inhibition was calculated by the method same as that of AChE-induced Aβ1–42 experiment.

hAChE [5] = target: T1, hAChE; test: Kinetic study of hAChE inhibition (Lineweaver-Burk); type: biochemical; design: Acetylcholinesterase (AChE, from electric eel and human erythrocytes); purchased Sigma-Aldrich (St. Louis, MO, USA)
Method: To determine the inhibition mechanism of present compounds, compound 4c was taken for kinetic analysis by Ellman’s method. Three concentrations of 4c were selected for the study, and hAChE was chosen as enzyme source. Following a similar method mentioned above in enzyme inhibition assay, Lineweaver–Burk reciprocal plots were constructed by plotting 1/velocity against 1/[substrate] at varying concentrations of the substrate acetylthiocholine (0.05 – 0.5 mM). All measurements were performed in triplicate and data analysis was performed with Graph Pad Prism 4.03 software (San Diego, CA, USA).

Kunming mice = test: Acute oral toxicity study; type: in vivo; details: oral, 625, 1250 and 2500 mg/kg, observed 14 days
Method: A total of 40 Kunming mice (half male and half female) were used to determine the acute toxicity of compound 4c[31]^,[32]. All mice weighting 18–25 g were obtained from Hunan SJA Laboratory Animal Co., Ltd. and randomly divided into corresponding groups. They were maintained under a 12 h light/dark cycle and allowed free access to tap water and standard laboratory chow. The room was maintained at temperature of 23 ± 2 °C with a relative humidity of 55 ± 5%. Prior to dosing, all animals were acclimated to this environment for 5 days. Compound 4c was suspended in 0.5% carboxymethyl cellulose sodium (CMC-Na) salt solution and given via oral administration to the divided experimental groups (0, 625, 1250 and 2500 mg/kg, n = 10 per group). After administration, animals were observed continuously for the first 4 h for any abnormal behavioural changes or deaths, then intermittently for the next 24 h, and occasionally thereafter for 14 days for the onset of any delayed effects. On the 14th day, all mice were sacrificed after being anaesthetized by ether, and the possible toxic damage to liver, heart and kidneys was examined macroscopically.

[6] = target: T3, AChE-induced Aβ1-42 aggregation (Electrophorus electricus, UniProt O42275); test: Inhibition of AChE-induced Aβ1-42 aggregation (ThT assay); type: biochemical; details: inhibitor 100 μM; thioflavin-T fluorescence
T3 construct: eeAChE (from electric eel); purchased eeAChE: Sigma-Aldrich (St. Louis, MO, USA); Aβ1-42: Royobiotech Co., Ltd (Shanghai, China)
T3 sequence (O42275 24-633): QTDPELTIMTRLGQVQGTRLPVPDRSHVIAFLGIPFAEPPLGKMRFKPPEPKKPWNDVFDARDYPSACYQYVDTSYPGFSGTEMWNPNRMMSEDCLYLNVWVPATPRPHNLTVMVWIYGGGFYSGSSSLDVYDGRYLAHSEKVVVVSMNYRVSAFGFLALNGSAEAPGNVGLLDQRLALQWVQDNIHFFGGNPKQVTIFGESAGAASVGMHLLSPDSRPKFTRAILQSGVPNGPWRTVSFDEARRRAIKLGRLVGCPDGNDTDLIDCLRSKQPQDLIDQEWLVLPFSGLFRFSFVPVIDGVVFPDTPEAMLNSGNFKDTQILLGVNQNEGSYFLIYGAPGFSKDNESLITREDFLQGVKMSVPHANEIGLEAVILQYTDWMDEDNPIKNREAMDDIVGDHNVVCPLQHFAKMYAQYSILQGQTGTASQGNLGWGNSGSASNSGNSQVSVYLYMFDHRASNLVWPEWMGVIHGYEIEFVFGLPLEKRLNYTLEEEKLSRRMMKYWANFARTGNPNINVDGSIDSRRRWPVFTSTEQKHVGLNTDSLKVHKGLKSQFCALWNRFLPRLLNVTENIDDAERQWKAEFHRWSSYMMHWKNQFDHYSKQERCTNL
Method: 1, 1, 1, 3, 3, 3-hexafluoro-2-propanol (HFIP) and Thioflavin T (ThT) were obtained from TCI (Shanghai) Development. β-Amyloid1-42 (Aβ1-42), supplied as trifluoroacetate salt, and eeAChE were purchased from Royobiotech Co., Ltd (Shanghai, China) and Sigma-Aldrich (St. Louis, MO, USA), respectively. For co-incubation experiments, aliquots of Aβ1-42 peptide and AChE in presence or absence of the test compounds were incubated for 48 h at 37 °C. […] The percent inhibition of the AChE-induced Aβ aggregation due to the presence of inhibitor was calculated by the following formula: 100 – (IFi/IFo*100), where IFi and IFo are the fluorescence intensities obtained for Aβ1-42 aggregation in the presence and in the absence of inhibitor, respectively. Each assay was run in triplicate and each reaction was repeated at least three independent times.

eeAChE = target: T4, eeAChE (Electrophorus electricus, UniProt O42275); test: In vitro inhibition of eeAChE (Ellman method); type: biochemical, electric eel
T4 construct: eeAChE (from electric eel); purchased Sigma-Aldrich (St. Louis, MO, USA); host or cells: electric eel
T4 sequence (O42275 24-633): as above
Method: as §2

in vitro = details: PAMPA
Method: as §1

eqBuChE = target: T5, eqBuChE (Equus caballus, UniProt P81908); test: In vitro inhibition of eqBuChE (Ellman method); type: biochemical, equine; details: read-out: eqBuChE Inhibition (%)
T5 construct: eqBuChE (from equine serum); purchased Sigma-Aldrich (St. Louis, MO, USA); host or cells: equine serum
T5 sequence (P81908 whole entry): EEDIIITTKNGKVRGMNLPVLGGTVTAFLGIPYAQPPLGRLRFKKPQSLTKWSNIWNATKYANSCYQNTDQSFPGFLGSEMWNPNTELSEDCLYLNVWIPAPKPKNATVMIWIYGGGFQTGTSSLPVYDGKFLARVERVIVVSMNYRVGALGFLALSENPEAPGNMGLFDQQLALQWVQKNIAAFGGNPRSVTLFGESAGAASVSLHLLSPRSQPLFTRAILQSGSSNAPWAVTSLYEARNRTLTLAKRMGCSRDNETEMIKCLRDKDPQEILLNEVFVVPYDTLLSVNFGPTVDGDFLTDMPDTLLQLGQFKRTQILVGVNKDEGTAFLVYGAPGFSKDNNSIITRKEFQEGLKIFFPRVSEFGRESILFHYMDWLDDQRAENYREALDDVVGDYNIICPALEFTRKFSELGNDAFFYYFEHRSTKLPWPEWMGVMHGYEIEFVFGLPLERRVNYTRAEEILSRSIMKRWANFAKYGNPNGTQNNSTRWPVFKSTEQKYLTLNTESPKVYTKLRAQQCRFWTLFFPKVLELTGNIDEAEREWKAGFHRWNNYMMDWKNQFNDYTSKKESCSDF
Method: as §2

O=c1ccc2ccc(OCCCCSC(=S)N3CCCCC3)cc2[nH]1 [4c, 4-((2-oxo-1,2-dihydroquinolin-7-yl)oxy)butyl piperidine-1-carbodithioate]
effect on cell viability (cytotoxicity) [1]: did not show a significant effect on cell viability; also recorded: negligible toxicity; also recorded: no toxicity | Prediction of penetration into CNS [2]: CNS+ (CNS + is predicted as high BBB permeation with Pe (×10^6 cm/s) > 3.33) | IC50 (hAChE [3]): 160 ± 20 nM | fold more potent on hAChE than tacrine (hAChE [3]; ratio of hAChE IC50 values): ~3 fold | inhibition at 25 µM [4]: 30.7 ± 6.54% | type of inhibition (hAChE [5]; Lineweaver-Burk plots, hAChE, 0.1, 0.2, 0.4 μM inhibitor): mixed-type inhibitor; also recorded: mixed-type inhibition | Ki (hAChE [5]; replots of slope versus concentration of 4c, hAChE, read-out: competitive inhibition constant Ki): 225 nM | acute toxicity (Kunming mice): no evident toxicity signs; also recorded: no significant acute toxicity; also recorded: well tolerated | inhibition at 100 µM [6]: 29 ± 2.06% | IC50 (eeAChE): 220 ± 30 nM | times more potent than galanthamine on AChE (eeAChE; ratio of eeAChE IC50 values): 7.5 times | Papp at 18 h, 25 μg/mL (in vitro): 8.91 ± 2.03 ×10⁻⁶ cm/s | inhibition at 10 µM (eqBuChE): 45.4 ± 8.34%
